These results are taken from paper PMC12360161, “Identifying 14-3-3 interactome binding sites with deep learning” (Digital Discovery, 2025).

Where two headings read alike, the source gives them in different places. Where a SMILES comes first, the peptide text is derived from it. Where no end group is shown, it is not given here. [ ]: non-standard residue; d: D form. The star is where a group is joined. 5FAM = O=C1OC2(c3ccc(O)cc3Oc3cc(O)ccc32)c2ccc(C(=O)*)cc21; pT = C[C@@H](OP(=O)(O)O)[C@H](N)C(=O)O; pS = N[C@@H](COP(=O)(O)O)C(=O)O; Ahx = NCCCCCC(=O)O

The target of assay [1] is T1, full-length (FL) human 14-3-3γ protein (Homo sapiens, UniProt P61981).
T1 construct: The full-length (FL) human 14-3-3γ protein was expressed from a pPROEX plasmid; His6; made in house; host or cells: E. coli BL21(DE3)
T1 sequence (P61981 1-247): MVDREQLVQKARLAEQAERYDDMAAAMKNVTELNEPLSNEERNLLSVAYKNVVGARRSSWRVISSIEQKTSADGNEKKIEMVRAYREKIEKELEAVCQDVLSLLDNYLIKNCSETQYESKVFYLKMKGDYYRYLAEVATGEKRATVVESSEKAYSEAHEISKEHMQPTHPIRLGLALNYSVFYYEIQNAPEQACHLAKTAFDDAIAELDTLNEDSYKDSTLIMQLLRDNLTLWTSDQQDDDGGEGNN
The assay can be described thus: Fluorescence anisotropy (FA) assay of FAM-labeled peptides binding to 14-3-3γ. To be noted: for Kd: 14-3-3γ FL dilution series (starting at 500 μM) to 10 nM FAM-labeled peptide, 10 mM HEPES pH 7.4, 150 mM NaCl, 0.1% Tween20, 1 mg/mL BSA, room temperature, Hill fit, mean ± SD; for Binding in the FA assay (in words): 14-3-3γ, 10 nM FAM-labeled peptide. On the procedure:
To study the binding of the fluorescently labelled peptides to 14-3-3, Fluorescence Anisotropy (FA) assays were carried out.[23] In the case of binding, tumbling of the peptide with the attached fluorophore will slow down and the emitted light will be polarized. This will lead to a higher anisotropy.[79] For all experiments, 14-3-3γ was used as it was shown in multiple experiments to be the strongest binding variant suitable for experimental screening.[80] The FAM-labeled peptides and the 14-3-3γ FL protein were diluted in buffer (10 mM HEPES pH 7.4, 150 mM NaCl, 0.1% Tween20, 1 mg mL^−1 BSA).
Dilution series of 14-3-3γ proteins (starting at 500 μM) were made to 10 nM of the FAM-labeled peptides in black, round-bottom 384-microwell (Corning) in a final sample volume of 10 μL. Fluorescence anisotropy values were measured using a Tecan Spark Control at room temperature filter set lex: 485 ± 20 nm, lem: 535 ± 25 nm, mirror: Dichroic 510, flashes: 30, integration time: 40 μs, settle time: 1 μs; gain: optimized per peptide, and Z-position: calculated from well. Wells containing only FAM-peptide were used to set as G-factor. The KD values were obtained from fitting the data using Origin 2020 with a Sigmoid Hill1 function (using the Hill equation). Data shown is the average and standard deviation of triplicates. For dose–response curves on a linear scale seep SI Fig. S2.

Assay [2] deals with T2, full-length (FL) human 14-3-3γ protein (human, UniProt P61981 1-247).
T2 construct: 14-3-3 gamma, human, full length; also called 14-3-3γ FL
T2 sequence (looked up): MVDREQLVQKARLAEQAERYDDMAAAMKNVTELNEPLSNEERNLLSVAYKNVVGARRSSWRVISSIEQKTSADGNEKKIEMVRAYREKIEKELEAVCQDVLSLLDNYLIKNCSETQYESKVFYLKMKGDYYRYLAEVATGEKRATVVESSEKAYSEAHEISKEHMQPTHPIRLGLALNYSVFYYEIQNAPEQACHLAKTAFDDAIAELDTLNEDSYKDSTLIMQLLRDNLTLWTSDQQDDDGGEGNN
The assay can be described thus: fluorescence polarisation; fluorescence anisotropy; dilution series of 14-3-3γ (starting at 500 μM) to 10 nM FAM-labeled peptide; 10 mM HEPES pH 7.4, 150 mM NaCl, 0.1% Tween20, 1 mg/mL BSA; room temperature; Hill fit; triplicates. To be noted: both partners purified. In general terms: Fluorescence polarisation rises when a labelled molecule tumbles more slowly, as on binding a larger partner.

The target in assay [3] is T2, full-length (FL) human 14-3-3γ protein. The description is as above. To be noted: both partners purified. This is another data set of the same source.

For `CC(C)C[C@H](NC(=O)[C@H](CO)NC(=O)[C@H](CC(=O)O)NC(=O)[C@H](CC(=O)O)NC(=O)CNC(=O)[C@H](CC(N)=O)NC(=O)[C@H](COP(=O)(O)O)NC(=O)[C@@H](NC(=O)[C@H](CCCCN)NC(=O)[C@H](CCCNC(=N)N)NC(=O)[C@H](CC(N)=O)NC(=O)[C@H](CC(N)=O)NC(=O)[C@H](CC(N)=O)NC(=O)[C@H](CC(N)=O)NC(=O)CCCCCNC(=O)c1ccc2c(c1)C(=O)OC21c2ccc(O)cc2Oc2cc(O)ccc21)[C@@H](C)O)C(=O)N[C@@H](Cc1ccccc1)C(N)=O` [Peptide 5] ({5FAM-Ahx}-NNNNRKT[pS]NGDDSLF-NH2), in assay [1] (n = 3, read-out: Kd), the Kd (as a rule, the free concentration of one partner at which half of the binding sites on the other are occupied at equilibrium, for simple one-to-one binding) is more than 500 µM. Moreover, in assay [1], the “Binding in the FA assay (in words)” value is on record as “no binding”.
With `CSCC[C@H](NC(=O)[C@H](CCCNC(=N)N)NC(=O)[C@H](CCCNC(=N)N)NC(=O)[C@H](CC(C)C)NC(=O)[C@H](CCC(=O)O)NC(=O)[C@H](CCCNC(=N)N)NC(=O)CNC(=O)CCCCCNC(=O)c1ccc2c(c1)C(=O)OC21c2ccc(O)cc2Oc2cc(O)ccc21)C(=O)N[C@@H](COP(=O)(O)O)C(=O)N[C@@H](CC(=O)O)C(=O)N[C@@H](CCC(=O)O)C(=O)N[C@@H](Cc1ccccc1)C(=O)N[C@H](C(=O)N[C@@H](CC(=O)O)C(=O)N[C@@H](CO)C(=O)N[C@@H](Cc1ccccc1)C(N)=O)C(C)C` [Peptide 7] ({5FAM-Ahx}-GRELRRM[pS]DEFVDSF-NH2), the dissociation constant (Kd) in assay [1] (n = 3, read-out: Kd) was more than 100 µM.
For `C[C@H](NC(=O)[C@H](CO)NC(=O)[C@@H]1CCCN1C(=O)[C@H](CO)NC(=O)CNC(=O)[C@H](COP(=O)(O)O)NC(=O)[C@H](CCC(=O)O)NC(=O)[C@H](CO)NC(=O)[C@H](CCCNC(=N)N)NC(=O)[C@H](CCCCN)NC(=O)CNC(=O)[C@@H]1CCCN1C(=O)[C@H](C)NC(=O)CCCCCNC(=O)c1ccc2c(c1)C(=O)OC21c2ccc(O)cc2Oc2cc(O)ccc21)C(=O)NCC(=O)NCC(N)=O` [Peptide 8] ({5FAM-Ahx}-APGKRSE[pS]GSPSAGG-NH2), in assay [1] (n = 3, read-out: Kd), the Kd was more than 100 µM.
Regarding `CC[C@H](C)[C@H](NC(=O)CNC(=O)[C@H](C)NC(=O)[C@H](CCC(=O)O)NC(=O)[C@H](CCC(=O)O)NC(=O)CCCCCNC(=O)c1ccc2c(c1)C(=O)OC21c2ccc(O)cc2Oc2cc(O)ccc21)C(=O)NCC(=O)N[C@@H](CC(=O)O)C(=O)N[C@H](C(=O)N1CCC[C@H]1C(=O)N[C@@H](CO)C(=O)N[C@@H](CC(C)C)C(=O)N[C@@H](CCC(=O)O)C(=O)N[C@@H](CC(=O)O)C(=O)N[C@@H](CCC(=O)O)C(=O)N[C@@H](C)C(N)=O)[C@@H](C)OP(=O)(O)O` [Peptide 9] ({5FAM-Ahx}-EEAGIGD[pT]PSLEDEA-NH2), the Kd in assay [1] (n = 3) was more than 500 µM. For the same molecule, the “Binding in the FA assay (in words)” value in assay [1] is on record as “did not bind”.
With `CC(C)C[C@H](NC(=O)CCCCCNC(=O)c1ccc2c(c1)C(=O)OC21c2ccc(O)cc2Oc2cc(O)ccc21)C(=O)N[C@@H](Cc1c[nH]cn1)C(=O)N[C@@H](CCC(=O)O)C(=O)N[C@@H](CCC(=O)O)C(=O)N[C@H](C(=O)N1CCC[C@H]1C(=O)N1CCC[C@H]1C(=O)N[C@H](C(=O)N[C@H](C(=O)N[C@@H](CO)C(=O)N[C@@H](CO)C(=O)N[C@@H](CC(=O)O)C(=O)N[C@@H](CO)C(=O)N[C@@H](CCC(=O)O)C(=O)N[C@@H](CCC(=O)O)C(N)=O)[C@@H](C)O)[C@@H](C)OP(=O)(O)O)[C@@H](C)O` [Peptide 10] ({5FAM-Ahx}-LHEETPP[pT]TSSDSEE-NH2), the Kd in assay [1] (n = 3) was more than 500 µM. In addition, the “Binding in the FA assay (in words)” value in assay [1] is on record as “did not bind”.
With GSRSRTP[pS]LPTPPTR [Tau-pS214 peptide], the Kd in assay [2] worked out at 16.4 ± 0.9 µM.

B1: Tau pS198 peptide (peptide 4), FAM-labelled (peptide)
peptide: {5FAM-Ahx}-SGDRSGY[pS]SPGSPGT-NH2
SMILES: C[C@@H](O)[C@H](NC(=O)CNC(=O)[C@@H]1CCCN1C(=O)[C@H](CO)NC(=O)CNC(=O)[C@@H]1CCCN1C(=O)[C@H](CO)NC(=O)[C@H](COP(=O)(O)O)NC(=O)[C@H](Cc1ccc(O)cc1)NC(=O)CNC(=O)[C@H](CO)NC(=O)[C@H](CCCNC(=N)N)NC(=O)[C@H](CC(=O)O)NC(=O)CNC(=O)[C@H](CO)NC(=O)CCCCCNC(=O)c1ccc2c(c1)C(=O)OC21c2ccc(O)cc2Oc2cc(O)ccc21)C(N)=O
notes: Tau, seven residues before and after phosphosite 198; numbers count on: P10636-8; source: synthetic peptide, bought: GenScript
In turn, B1 came in with a Kd in assay [3] of 71 µM.

B2: Tau pT245 peptide (peptide 2), FAM-labelled (peptide)
peptide: SAKSRLQ[pT]APVPMPD-NH2
modifications: not fully specified (N-terminus)
notes: Tau, seven residues before and after phosphosite 245; numbers count on: P10636-8; source: synthetic peptide, bought: GenScript
In the case of B2, the Kd in assay [3] came out at 8.6 µM; in assay [2], 8.5 ± 0.2 µM.

B3: Notch 4 pS1847 peptide (peptide 3), FAM-labelled (peptide)
peptide: {5FAM-Ahx}-FPRARTV[pS]VSVPPHG-NH2
SMILES: CC(C)[C@H](NC(=O)[C@H](COP(=O)(O)O)NC(=O)[C@@H](NC(=O)[C@@H](NC(=O)[C@H](CCCNC(=N)N)NC(=O)[C@H](C)NC(=O)[C@H](CCCNC(=N)N)NC(=O)[C@@H]1CCCN1C(=O)[C@H](Cc1ccccc1)NC(=O)CCCCCNC(=O)c1ccc2c(c1)C(=O)OC21c2ccc(O)cc2Oc2cc(O)ccc21)[C@@H](C)O)C(C)C)C(=O)N[C@@H](CO)C(=O)N[C@H](C(=O)N1CCC[C@H]1C(=O)N1CCC[C@H]1C(=O)N[C@@H](Cc1c[nH]cn1)C(=O)NCC(N)=O)C(C)C
notes: Notch-4, seven residues before and after phosphosite 1847; also called NOTCH pS1847; source: synthetic peptide, bought: GenScript
With B3, the affinity in assay [3], expressed as Kd, was 70 µM.
As to KVTSKCG[pS]LGNIHHK [Tau-pS324 peptide], the Kd in assay [2] is more than 100 µM.

B4: FOXO3 pS413 peptide (peptide 1), FAM-labelled (peptide)
peptide: {5FAM-Ahx}-GLMQRSS[pS]FPYTTKG-NH2
SMILES: CSCC[C@H](NC(=O)[C@H](CC(C)C)NC(=O)CNC(=O)CCCCCNC(=O)c1ccc2c(c1)C(=O)OC21c2ccc(O)cc2Oc2cc(O)ccc21)C(=O)N[C@@H](CCC(N)=O)C(=O)N[C@@H](CCCNC(=N)N)C(=O)N[C@@H](CO)C(=O)N[C@@H](CO)C(=O)N[C@@H](COP(=O)(O)O)C(=O)N[C@@H](Cc1ccccc1)C(=O)N1CCC[C@H]1C(=O)N[C@@H](Cc1ccc(O)cc1)C(=O)N[C@H](C(=O)N[C@H](C(=O)N[C@@H](CCCCN)C(=O)NCC(N)=O)[C@@H](C)O)[C@@H](C)O
notes: forkhead box O3 (FOXO3), seven residues before and after phosphosite 413; also called FOXO pS413; source: synthetic peptide, bought: GenScript
In assay [3], B4 displayed a Kd of 1.6 µM.

B5: BAD pS134 peptide (peptide 6), FAM-labelled (peptide)
peptide: {5FAM-Ahx}-KGLPRPK[pS]AGTATQM-NH2
SMILES: CSCC[C@H](NC(=O)[C@H](CCC(N)=O)NC(=O)[C@@H](NC(=O)[C@H](C)NC(=O)[C@@H](NC(=O)CNC(=O)[C@H](C)NC(=O)[C@H](COP(=O)(O)O)NC(=O)[C@H](CCCCN)NC(=O)[C@@H]1CCCN1C(=O)[C@H](CCCNC(=N)N)NC(=O)[C@@H]1CCCN1C(=O)[C@H](CC(C)C)NC(=O)CNC(=O)[C@H](CCCCN)NC(=O)CCCCCNC(=O)c1ccc2c(c1)C(=O)OC21c2ccc(O)cc2Oc2cc(O)ccc21)[C@@H](C)O)[C@@H](C)O)C(N)=O
notes: Bcl-2-associated agonist of cell death (BAD), seven residues before and after phosphosite 134; source: synthetic peptide, bought: GenScript
In turn, B5 registered a Kd in assay [3] of 15.9 µM.
